Patent publication US4771057A, “Reduced pyridyl derivatives with cardiovascular regulating properties” (University of Alberta, priority 1986, dated 1988)
pIC50: −log10 of the molar value. Like-named read-outs stand apart in the source and are kept apart here.

System: guinea pig ileal longitudinal smooth muscle
Assay: Calcium channel antagonist testing: inhibition of muscarinic receptor-mediated Ca2+-dependent contraction (response to CD) of guinea pig ileal longitudinal smooth muscle
Format: cell-based
Conditions: for pIC50: 50% inhibition of tonic contraction to CD 5×10^-7 M, compound added 10 min before CD, 37° C., pH 7.4, read-out: Calcium channel antagonist act., inhib. act. on contractile response to CD, ID50; for calcium channel antagonist activity, comparison to Nifedipine (TM): conclusion from Table 7
Method: Male albino guinea pigs (body weight 300-450 g) were sacrificed by decapitation. The intestine was removed above the ileo-caecal junction. Longitudinal smooth muscle segments of 2 cm length were mounted under a resting tension of 300-400 mg. […] The muscles were equilibrated for 1 h with a solution change every 15 min. Two successive control contractions were elicited at 15 min intervals with 5×10^-7 M cis-2-methyl- 4-dimethylaminomethyl-1,3-dioxolane methiodide (CD). The isometric contractions were recorded with a force displacement transducer (FT 03C) on a GRASS physiograph. The means of the two contractile responses was taken as the 100% value for the tonic (slow) component of the response. The muscle was washed with Hepes saline solution and was allowed to re-equilibrate. The calcium antagonist (test compound) was added ten min before the dose-response for CD was determined. The drug-induced inhibition of contraction was expressed as percent of control. The ID50 values were graphically determined from the concentration-response curves.

Compound	pIC50 (Cavia porcellus)	calcium channel antagonist activity, comparison to Nifedipine (TM)	pIC50
COC(=O)C1=C(C)NC(C)=C(C(=O)OC)C1c1cccnc1 [Compound D-5, 3,5-Dimethyl 2,6-dimethyl-4-(3'-pyridyl)-1,4-dihydropyridine-3,5-dicarboxylate]	5.42		
COC(=O)C1=C(C)N(C)C(C)C(C(=O)OC)=C1c1ccccc1[N+](=O)[O-] (stereo not drawn) [Compound S-6, Dimethyl 1,2,6-trimethyl-4-(2-nitrophenyl)-1,2-dihydropyridine-3,5-dicarboxylate]	5.60		
COC(=O)C1=C(C)N(C)C(C)C(C(=O)OC)=C1c1ccc(C(F)(F)F)cc1 (stereo not drawn) [Compound W-1, Dimethyl 1,2,6-trimethyl-4-(4-trifluoromethylphenyl)-1,2-dihydropyridine-3,5-dicarboxylate]	5.05		
COC(=O)C1=C(C)N(C)C(C)C(C(=O)OC)=C1c1cccc(C(F)(F)F)c1 (stereo not drawn) [Compound S-2, Dimethyl 1,2,6-trimethyl-4-(3-trifluoromethylphenyl)-1,2-dihydropyridine-3,5-dicarboxylate]	5.46		
COC(=O)C1=C(C)NC(C)=C(C(=O)OCC(C)C)C1c1cccnc1 [Compound D-7, 3-Isobutyl-5-methyl 2,6-dimethyl-4-(3'-pyridyl)-1,4-dihydropyridine-3,5-dicarboxylate]	4.25	active calcium channel antagonists, being comparable to Nifedipine (TM)	
CC1=C(C(=O)OC(C)C)C(c2ccncc2)C(C(=O)OC(C)C)=C(C)N1 [Compound D-22, 3,5-Diisopropyl 2,6-dimethyl-4-(4'-pyridyl)-1,4-dihydropyridine-3,5-dicarboxylate]	6.64	active calcium channel antagonists, being comparable to Nifedipine (TM)	
COC(=O)C1=C(C)NC(C)=C(C(=O)OC(C)C)C1c1ccncc1 [Compound D-10, 3-Isopropyl-5-methyl 2,6-dimethyl-4-(4'-pyridyl)-1,4-dihydropyridine-3,5-dicarboxylate]	6.25	active calcium channel antagonists, being comparable to Nifedipine (TM)	
CCOC(=O)C1=C(C)NC(C)=C(C(=O)OCC)C1C1=CCN(C)CC1 [Compound D-67, Diethyl 2,6-dimethyl-4-[4'-(N--methyl-1',2',3',6'-tetrahydropyridyl)]-1,4-dihydropyridine-3,5-dicarboxylate]	5.30		
COC(=O)C1=C(C)NC(C)=C(C(=O)OCCN(C)C)C1c1ccncc1 [Compound D-12, 3-[2-(N,N--dimethylamino)ethyl] -5-methyl 2,6-dimethyl-4-(4'-pyridyl)-1,4-dihydropyridine-3,5-dicarboxylate]	4.29		
COC(=O)C1=C(C)NC(C)=C(C(=O)OC)C1C1=CCCN(C)C1 [Compound D-68, Dimethyl 2,6-dimethyl-4-[5'-(N--methyl-1',2',3',6'-tetrahydropyridyl)]-1,4-dihydropyridine-3,5-dicarboxylate]	5.46		
CC1=C(C(=O)OC(C)C)C(c2cccnc2)C(C(=O)OC(C)C)=C(C)N1 [Compound D-18]	6.59	active calcium channel antagonists, being comparable to Nifedipine (TM)	
Dimethyl 2,6-dimethyl-4-{3'-[N--phenoxycarbonyl-1',2'-(1',6'-)dihydropyridyl]}-1,4-dihydropyridine-3,5-dicarboxylate [Compound D-36]			5.43
COC(=O)C1=C(C)NC(C)=C(C(=O)OCC(C)C)C1c1ccccn1 [Compound D-3, 3-Isobutyl-5-methyl 2,6-dimethyl-4-(2'-pyridyl)-1,4-dihydropyridine-3,5-dicarboxylate]	7.39	active calcium channel antagonists, being comparable to Nifedipine (TM)	
COC(=O)C1=C(C)NC(C)=C(C(=O)OC)C1c1ccncc1 [Compound D-9, 3,5-Dimethyl 2,6-dimethyl-4-(4'-pyridyl)-1,4-dihydropyridine-3,5-dicarboxylate]	5.30		
COC(=O)C1=C(C)N(C)C(C)C(C(=O)OC)=C1c1ccccc1 (stereo not drawn) [Compound S-1, Dimethyl 1,2,6-trimethyl-4-phenyl-1,2-dihydropyridine-3,5-dicarboxylate]	5.67		
CC1=C(C(=O)OC(C)C)C(c2ccccc2[N+](=O)[O-])=C(C(=O)OC(C)C)C(C)N1C (stereo not drawn) [Compound W-4, Diisopropyl 1,2,6-trimethyl-4-(2-nitrophenyl)-1,2-dihydropyridine-3,5-dicarboxylate]	5.24		
COC(=O)C1=C(C)N(C)C(C)C(C(=O)OC)=C1c1cccc([N+](=O)[O-])c1 (stereo not drawn) [Compound S-5, Dimethyl 1,2,6-trimethyl-4-(3-nitrophenyl)-1,2-dihydropyridine-3,5-dicarboxylate]	5.10		

Compound	pIC50 (Cavia porcellus)	calcium channel antagonist activity, comparison to Nifedipine (TM)	pIC50
COC(=O)C1=C(C)NC(C)=C(C(=O)OC(C)C)C1c1cccnc1 [Compound D-6, 3-Isopropyl-5-methyl 2,6-dimethyl-4-(3'-pyridyl)-1,4-dihydropyridine-3,5-dicarboxylate]	7.01	active calcium channel antagonists, being comparable to Nifedipine (TM)	
Diisopropyl 2,6-dimethyl-4-{3'-[N-- phenoxycarbonyl-1',2'-(1',6'-)dihydropyridyl]}-1,4-dihydropyridine-3,5-dicarboxylate [Compound D-38]			5.78
CC1=C(C#N)C(c2ccncc2)C(C#N)=C(C)N1 [Compound D-28, 3,5-dicyano-2,6-dimethyl-4-(4'-pyridyl)-1,4-dihydropyridine]	3.89		
COC(=O)C1=C(C)NC(C)=C(C(=O)OC)C1C1CC=CCN1C [Compound D-64]	4.19		
3-Isobutyl-5-methyl 2,6-dimethyl-4-{3'-[N--phenoxycarbonyl-1',2'-(1',6'-)dihydropyridyl]}-1,4-dihydropyridine-3,5-dicarboxylate [Compound D-44]		active calcium channel antagonists, being comparable to Nifedipine (TM)	7.35
COC(=O)C1=C(C)N(C)C(C)C(C(=O)OC)=C1c1ccc([N+](=O)[O-])cc1 (stereo not drawn) [Compound S-4, Dimethyl 1,2,6-trimethyl-4-(4-nitrophenyl)-1,2-dihydropyridine-3,5-dicarboxylate]	4.63		
COC(=O)C1=C(C)N(C)C(C)C(C(=O)OC)=C1c1ccccc1C(F)(F)F (stereo not drawn) [Compound S-3, Dimethyl 1,2,6-trimethyl-4-(2-trifluoromethylphenyl)-1,2-dihydropyridine-3,5-dicarboxylate]	4.92		
COC(=O)C1=C(C)N(C)C(C)C(C(=O)OC(C)C)=C1c1ccccc1[N+](=O)[O-] (stereo not drawn) [Compound W-3, 3-Isopropyl-5-methyl 1,2,6-trimethyl-4-(2-nitrophenyl)-1,2-dihydropyridine-3,5-dicarboxylate]	4.98		
CCOC(=O)C1=C(C)NC(C)=C(C(=O)OCC)C1C1=CCCN(C)C1 [Compound D-69, Diethyl 2,6-dimethyl-4-[5'-(N--methyl-1',2',3',6'-tetrahydropyridyl)]-1,4-dihydropyridine-3,5-dicarboxylate]	5.96		
Diisobutyl 2,6-dimethyl-4-{3'-[N--methoxycarbonyl-1',2'(1',6'-)dihydropyridyl]}-1,4-dihydropyridine-3,5-dicarboxylate [Compound D-35]		active calcium channel antagonists, being comparable to Nifedipine (TM)	6.11
CC1=C(C(=O)OCC(C)C)C(c2ccncc2)C(C(=O)OCC(C)C)=C(C)N1 [Compound D-23, 3,5-Diisobutyl 2,6-dimethyl-4-(4'-pyridyl)-1,4-dihydropyridine-3,5-dicarboxylate]	6.24	active calcium channel antagonists, being comparable to Nifedipine (TM)	
COC(=O)C1=C(C)NC(C)=C(C(=O)OCCN(C)C)C1c1cccnc1 [Compound D-8, 3-[2-(N,N--dimethylamino)ethyl]-5-methyl 2,6-dimethyl-4-(3'-pyridyl)-1,4-dihydropyridine-3,5-dicarboxylate]	4.48		
CCOC(=O)C1=C(C)NC(C)=C(C(=O)OCC)C1c1cccnc1 [Compound D-17, 3,5-Diethyl 2,6-dimethyl-4-(3'-pyridyl)-1,4-dihydropyridine-3,5-dicarboxylate]	6.46	active calcium channel antagonists, being comparable to Nifedipine (TM)	
CC1=C(C(=O)OC(C)C)C(c2ccccn2)C(C(=O)OC(C)C)=C(C)N1 [Compound D-14, 3,5-Diisopropyl 2,6-dimethyl-4-(2'-pyridyl)-1,4-dihydropyridine-3,5-dicarboxylate]	6.90	active calcium channel antagonists, being comparable to Nifedipine (TM)	
Diisobutyl 2,6-dimethyl-4-{3'-[N--t-butoxycarbonyl-1',2'-(1',6'-)dihydropyridyl]}-1,4-dihydropyridine-3,5-dicarboxylate [Compound D-42]			5.47
COC(=O)C1=C(C)NC(C)=C(C#N)C1c1ccncc1 [Compound D-26]	4.06		
COC(=O)C1=C(C)NC(C)=C(C(=O)OC)C1C1=CCN(C)CC1 [Compound D-66, Dimethyl 2,6-dimethyl-4-[4'-(N--methyl-1',2',3',6'-tetrahydropyridyl)]-1,4-dihydropyridine-3,5-dicarboxylate]	3.74		
